tested on: KRAS G12V dependent lung adenocarcinoma cell line, NCI-H441; test: Cellular pERK (Thr202/Tyr204) FRET/HTRF assay; format: cell-based; settings: Homo sapiens, NCI-H441, cellular pERK (Thr202/Tyr204) HTRF, NCI-H441 cells
Method in brief: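 IC50 reflects inhibition of ERK1/2 Thr202/Tyr204 phosphorylation, quantified by HTRF after a 1 hr treatment of KRAS G12V-driven NCI-H441 cells. DMSO served as negative control.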

C#Cc1c(F)ccc2cccc(-c3ncc4c(N5CCOC[C@H]6[C@H](F)[C@H]65)nc(OC[C@]56C[C@@H](F)CN5C[C@@H](CNC(C)=O)C6)nc4c3F)c12 [Example 245, N-(((2R,6R,7aS)-7a-(((7-(8-ethynyl-7-fluoronaphthalen-1-yl)-8-fluoro-4-((1S,7S,8S)-8-fluoro-5-oxa-2-azabicyclo[5.1.0]octan-2-yl)pyrido[4,3-d]pyrimidin-2-yl)oxy)methyl)-6-fluorohexahydro-1H-pyrrolizin-2-yl)methyl)acetamide] and C#Cc1c(F)ccc2cc(N)cc(-c3ncc4c(N5CCOC[C@H]6[C@H](F)[C@H]65)nc(OC[C@]56C[C@@H](F)CN5C[C@@H](CN)C6)nc4c3F)c12 [Example 258, 4-(2-(((2R,6R,7aS)-2-(aminomethyl)-6-fluorotetrahydro-1H-pyrrolizin-7a(5H)-yl)methoxy)-8-fluoro-4-((1S,7S,8S)-8-fluoro-5-oxa-2-azabicyclo[5.1.0]octan-2-yl)pyrido[4,3-d]pyrimidin-7-yl)-5-ethynyl-6-fluoronaphthalen-2-amine] fall in the same range of IC50: 50 to 500 nM for the first, 50 to 500 nM for the second.

First: Cc1c(F)c(N)cc(-c2ncc3c(N4CCCC[C@@H]5[C@@H](F)[C@@H]54)nc(OC[C@@]45CCCN4CC(=C(F)F)C5)nc3c2F)c1C(F)(F)F [Example 395, 5-(2-(((S)-2-(difluoromethylene)tetrahydro-1H-pyrrolizin-7a(5H)-yl)methoxy)-8-fluoro-4-((1R,7S,8R)-8-fluoro-2-azabicyclo[5.1.0]octan-2-yl)pyrido[4,3-d]pyrimidin-7-yl)-2-fluoro-3-methyl-4-(trifluoromethyl)aniline]
Second: [2H]C([2H])(Oc1nc(N2CCOC[C@H]3[C@H](F)[C@H]32)c2cc(F)c(-c3cc(N)c(F)c(C)c3C(F)(F)F)c(F)c2n1)[C@@]12CCCN1C[C@H](F)C2 [Example 177, 5-(6,8-difluoro-4-((1S,7S,8S)-8-fluoro-5-oxa-2-azabicyclo[5.1.0]octan-2-yl)-2-(((2R,7aS)-2-fluorotetrahydro-1H-pyrrolizin-7a(5H)-yl)methoxy-d2)quinazolin-7-yl)-2-fluoro-3-methyl-4-(trifluoromethyl)aniline]
The IC50 of the first is higher: 500 to 10000 nM for the first, under 50 nM for the second. The second is the more potent here.

[2H]C([2H])(Oc1nc(N2CCOC[C@H]3[C@H](F)[C@H]32)c2cnc(-c3cc(N)cc4ccc(F)c(C#C)c34)c(F)c2n1)[C@@]12CCCN1C[C@]1(C[C@@H]1F)C2 (single isomer, unassigned) [Example 313] and [2H]C([2H])(Oc1nc(N2CCOC[C@H]3[C@H](F)[C@H]32)c2cnc(-c3cc(N)cc4ccc(F)c(C=C)c34)c(F)c2n1)[C@@]12CCCN1C[C@H](F)C2 [Example 199, 6-Fluoro-4-(8-fluoro-4-((1S,7S,8S)-8-fluoro-5-oxa-2-azabicyclo[5.1.0]octan-2-yl)-2-(((2R,7aS)-2-fluorotetrahydro-1H-pyrrolizin-7a(5H)-yl)methoxy-d2)pyrido[4,3-d]pyrimidin-7-yl)-5-vinylnaphthalen-2-amine] cannot be ordered by IC50: under 50 nM for the first, under 50 nM for the second.

[2H]C([2H])(Oc1nc(N2CCOC[C@@H]3[C@@H](F)[C@@H]32)c2cc(Cl)c(-c3cc(N)cc(C)c3C(F)(F)F)c(F)c2n1)[C@@]12CCCN1C[C@H](F)C2 [Example 181, 3-(6-chloro-8-fluoro-4-((1R,7R,8R)-8-fluoro-5-oxa-2-azabicyclo[5.1.0]octan-2-yl)-2-(((2R,7aS)-2-fluorotetrahydro-1H-pyrrolizin-7a(5H)-yl)methoxy-d2)quinazolin-7-yl)-5-methyl-4-(trifluoromethyl)aniline] and [2H]C([2H])(Oc1nc(N2CCOC[C@@H]3[C@@H](F)[C@@H]32)c2ccc(-c3cc(N)cc(C)c3C(F)(F)F)c(F)c2n1)[C@@]12CCCN1C[C@H](F)C2 [Example 182, 3-(8-fluoro-4-((1R,7R,8R)-8-fluoro-5-oxa-2-azabicyclo[5.1.0]octan-2-yl)-2-(((2R,7aS)-2-fluorotetrahydro-1H-pyrrolizin-7a(5H)-yl)methoxy-d2)quinazolin-7-yl)-5-methyl-4-(trifluoromethyl)aniline] fall in the same range of IC50: 500 to 10000 nM for the first, 500 to 10000 nM for the second.

same assay, conditions: Homo sapiens, NCI-H441, cellular pERK HTRF, NCI-H441 (KRAS G12V) cells

Work on [2H]C([2H])(Oc1nc(N2CCCC[C@H]3[C@H](F)[C@H]32)c2cnc(-c3cc(N)cc4ccc(F)c(C#C)c34)c(C)c2n1)[C@@]12CCCN1C[C@H](F)C2 [Example 460, 5-Ethynyl-6-fluoro-4-(4-((1S,7R,8S)-8-fluoro-2-azabicyclo[5.1.0]octan-2-yl)-2-(((2R,7aS)-2-fluorotetrahydro-1H-pyrrolizin-7a(5H)-yl)methoxy-d2)-8-methylpyrido[4,3-d]pyrimidin-7-yl)naphthalen-2-amine] yielded an IC50 of under 50 nM.

same assay, conditions: Homo sapiens, NCI-H441, pERK HTRF, NCI-H441 cells (KRAS G12V)

[2H]C([2H])(Oc1nc(N2CCC[C@H]3C[C@H]32)c2cnc(-c3cc(N)cc4cc(F)c(F)c(C#C)c34)c(F)c2n1)[C@@]12CCCN1C[C@H](F)C2 [Example 52, 4-(4-((1R,6S)-2-azabicyclo[4.1.0]heptan-2-yl)-8-fluoro-2-(((2R,7aS)-2-fluorotetrahydro-1H-pyrrolizin-7a(5H)-yl)methoxy-d2)pyrido[4,3-d]pyrimidin-7-yl)-5-ethynyl-6,7-difluoronaphthalen-2-amine] and [2H]C([2H])(Oc1nc(N2CCO[C@@H]3C[C@@H]32)c2cnc(-c3cc(N)cc4cc(F)c(F)c(C#C)c34)c(F)c2n1)[C@@]12CCCN1C[C@H](F)C2 [Example 31, 4-(4-((1R,6S)-2-Oxa-5-azabicyclo[4.1.0]heptan-5-yl)-8-fluoro-2-(((2R,7aS)-2-fluorotetrahydro-1H-pyrrolizin-7a(5H)-yl)methoxy-d2)pyrido[4,3-d]pyrimidin-7-yl)-5-ethynyl-6,7-difluoronaphthalen-2-amine] fall in the same range of IC50: 50 to 500 nM for the first, 50 to 500 nM for the second.

First: [2H]C([2H])(Oc1nc(N2CCCO[C@@H]3C[C@@H]32)c2c(OC)nc(-c3cc(O)cc4ccc(F)c(C#C)c34)c(F)c2n1)[C@@]12CCCN1C[C@H](F)C2 [Example 35, 4-(4-((1R,7S)-2-Oxa-6-azabicyclo[5.1.0]octan-6-yl)-8-fluoro-2-(((2R,7aS)-2-fluorotetrahydro-1H-pyrrolizin-7a(5H)-yl)methoxy-d2)-5-methoxypyrido[4,3-d]pyrimidin-7-yl)-5-ethynyl-6-fluoronaphthalen-2-ol]
Second: [2H]C([2H])([2H])Oc1c(F)c(F)c(F)c2cc(N)cc(-c3ncc4c(N5CCCO[C@H]6[C@H](F)[C@H]65)nc(OC([2H])([2H])[C@@]56CCCN5C[C@H](F)C6)nc4c3F)c12 [Example 77, 6,7,8-Trifluoro-4-(8-fluoro-4-((1R,7S,8R)-8-fluoro-2-oxa-6-azabicyclo[5.1.0]octan-6-yl)-2-(((2R,7aS)-2-fluorotetrahydro-1H-pyrrolizin-7a(5H)-yl)methoxy-d2)pyrido[4,3-d]pyrimidin-7-yl)-5-(methoxy-d3)naphthalen-2-amine]
The IC50 of the first is higher: 50 to 500 nM for the first, under 50 nM for the second. The second is the more potent here.

same assay, conditions: cellular pERK HTRF, NCI-H441 (KRAS G12V) cells

With [2H]C([2H])(Oc1nc(N2CCOC[C@H]3[C@H](F)[C@H]32)c2cc(F)c(-c3ccc(F)c4sc(N)c(C#N)c34)c(C)c2n1)[C@@]12CCCN1C[C@H](F)C2 (atropisomer, axis not shown; (aS)) [Example 450, 2-amino-7-fluoro-4-((S)-6-fluoro-4-((1S,7S,8S)-8-fluoro-5-oxa-2-azabicyclo[5.1.0]octan-2-yl)-2-(((2R,7aS)-2-fluorotetrahydro-1H-pyrrolizin-7a(5H)-yl)methoxy-d2)-8-methylquinazolin-7-yl)benzo[b]thiophene-3-carbonitrile] the IC50 was 500 to 10000 nM.
